{
  "source": "patent US20120136050A1",
  "about": "“USE OF A MELATONIN AGONIST FOR THE TREATMENT OF SLEEP DISORDERS INCLUDING PRIMARY INSOMNIA” (VANDA PHARMACEUTICALS INC., priority 2009, published 2012)",
  "key": {"[1]": {"test_system": "patients with chronic primary insomnia", "assay": "Phase III placebo-controlled 4-week trial in chronic primary insomnia (PSG)", "assay_type": "in vivo, human", "details": "for fell asleep faster than placebo group (PSG): first night of treatment, p<0.001", "procedure": "A phase III, multi-center, placebo-controlled, 4-week trial evaluated 322 patients with chronic primary insomnia. Patients were randomized to receive either 20 mg or 50 mg of Compound A or placebo over the course of four weeks. The primary endpoint consisted of the evaluation of the immediate and short-term (average of Nights 1 and 8) ability of Compound A to improve sleep onset as measured by Latency to Persistent Sleep (LPS) through polysomnography (PSG). Secondary endpoints evaluated Compound A's ability to maintain improvements on sleep onset after long-term (average of Nights 22 and 29) use of the compound as well as measures of sleep duration (Total Sleep Time, TST) and sleep maintenance (Wake After Sleep Onset, WASO). Patients were eligible for the study if symptoms of insomnia were chronic and LPS was greater than 30 minutes."}, "[2]": {"test_system": "healthy male and female subjects with induced transient insomnia", "assay": "Example 2: single oral dose study in induced transient insomnia (PSG)", "assay_type": "in vivo, human", "procedure": "A multi-center, randomized, double-blind, placebo-controlled, parallel-group study was conducted to investigate the efficacy and safety of single oral doses of VEC-162 (20 mg, 50 mg, and 100 mg) and matching placebo in healthy male and female subjects with induced transient insomnia. Approximately four hundred subjects were randomized in approximately a 1:1:1:1 ratio to the treatment groups.\nIn general, a screening period began 14 to 35 days prior to the start of the evaluation period, which was Day 1. Prior to Day 1, subjects were asked to increase their sleep time to 9 hours per night. Drug, or placebo, was administered on Night 1, approximately 0.5 hour prior to lights off.\nThe primary efficacy variable was LPS. LPS is defined as the length of time elapsed between lights off and onset of persistent sleep. In this trial, persistent sleep is defined as the point at which 10 minutes of uninterrupted sleep has begun. Sleep was determined on the basis of polysomnography (PSG).\nWake After Sleep Onset (WASO): WASO is defined as the time spent awake between onset of sleep and Lights On during Night 1, determined by PSG.\nLatency to Non-Awake (LNA): LNA is defined as the number of minutes to reach any stage of sleep.\nTotal Sleep Time (TST): TST is defined as the number of minutes spent asleep during the entire time in bed."}, "[3]": {"test_system": "elderly patients with primary insomnia", "assay": "28-day Phase II study in elderly patients with primary insomnia", "assay_type": "in vivo, human", "procedure": "A 28-day Phase II study was also conducted to investigate the effects of Compound A in elderly patients with primary insomnia. […] While patients with the lowest melatonin levels ([…]) may have benefited from Compound A treatment more than placebo, the design of this study made it difficult to interpret the effects of Compound A on the sleep-wake cycle."}, "[4]": {"test_system": "circadian sleep-wake cycle", "assay": "Clinical trial CN116-002, effects on the circadian sleep-wake cycle", "assay_type": "in vivo, human", "details": "50 mg", "procedure": "The oral doses selected were based on safety and efficacy data obtained from previous Compound A pre-clinical and clinical trials. […] Though not optimally designed to assess the chronobiotic potential of Compound A, clinical trial CN116-002 measured the effects Compound A on the circadian sleep-wake cycle. […] The doses selected for the study (10 mg, 20 mg, 50 mg, and 100 mg) were within the expected dose range for efficacy. The safety of the selected doses for this study is supported by previous clinical studies. […] The highest dose in the study, 100 mg, is well within the safety margin established in both Phase I single and multiple ascending dose trials and in a Phase II study."}, "[5]": {"assay": "Plasma exposure after oral administration (Cmax, AUC)", "assay_type": "in vivo, human"}, "[6]": {"assay": "Solubility in solvents and water", "assay_type": "physicochemical"}, "[7]": {"details": "20 mg, Nights 1 and 8 vs baseline, p<0.001 vs placebo"}, "[8]": {"details": "20 mg, Nights 22 and 29 vs baseline, nss"}, "[9]": {"details": "20 mg, Nights 22 and 29 vs baseline, p<0.001 vs placebo"}, "[10]": {"details": "50 mg, Nights 1 and 8 vs baseline, p<0.001 vs placebo"}, "[11]": {"details": "50 mg, Nights 22 and 29 vs baseline, nss"}, "[12]": {"details": "50 mg single oral dose, p<0.001"}, "[13]": {"details": "single oral dose, conclusion from Examples 1 and 2"}},
  "data": [
    {"smiles": "CCC(=O)NC[C@@H]1C[C@H]1c1cccc2c1CCO2", "note": "[Compound A, N-[[(1R,2R)-2-(2,3-dihydro-1-benzofuran-4-yl)cycloproply]methyl]propanamide]", "values": [
      {"measurement": "tolerability and safety profile", "setting": "[1]; 20 mg or 50 mg over four weeks", "result": "well-tolerated and exhibited a safety profile generally similar to placebo"},
      {"measurement": "mean WASO improved by", "setting": "[1]; 20 mg, Nights 1 and 8 vs baseline, nss", "result": 12.2, "unit": "min"},
      {"measurement": "mean LPS improved by", "setting": "[1]; [7]", "result": 45.0, "unit": "min"},
      {"measurement": "mean TST during the first third of the night improved by", "setting": "[1]; [7]", "result": 40.9, "unit": "min"},
      {"measurement": "mean WASO during the first third of the night improved by", "setting": "[1]; 20 mg, Nights 1 and 8 vs baseline, p<0.01 vs placebo", "result": 2.3, "unit": "min"},
      {"measurement": "mean TST improved by", "setting": "[1]; 20 mg, Nights 1 and 8 vs baseline, p=0.089 vs placebo", "result": 51.4, "unit": "min"},
      {"measurement": "mean WASO during the first third of the night improved by", "setting": "[1]; [8]", "result": 3.1, "unit": "min"},
      {"measurement": "mean WASO improved by", "setting": "[1]; [8]", "result": 17.7, "unit": "min"},
      {"measurement": "mean LPS improved by", "setting": "[1]; [9]", "result": 49.4, "unit": "min"},
      {"measurement": "mean TST during the first third of the night improved by", "setting": "[1]; [9]", "result": 45.2, "unit": "min"},
      {"measurement": "mean TST improved by", "setting": "[1]; 20 mg, Nights 22 and 29 vs baseline, p=0.057 vs placebo", "result": 60.3, "unit": "min"},
      {"measurement": "fell asleep faster than placebo group (PSG)", "setting": "[1]; 20 mg", "result": 22.9, "unit": "min"},
      {"measurement": "mean WASO improved by", "setting": "[1]; 50 mg, Nights 1 and 8 vs baseline, nss", "result": 14.1, "unit": "min"},
      {"measurement": "mean LPS improved by", "setting": "[1]; [10]", "result": 46.4, "unit": "min"},
      {"measurement": "mean TST during the first third of the night improved by", "setting": "[1]; [10]", "result": 39.4, "unit": "min"},
      {"measurement": "mean WASO during the first third of the night improved by", "setting": "[1]; 50 mg, Nights 1 and 8 vs baseline, p<0.05 vs placebo", "result": 1.8, "unit": "min"},
      {"measurement": "mean TST improved by", "setting": "[1]; 50 mg, Nights 1 and 8 vs baseline, p=0.074 vs placebo", "result": 52.0, "unit": "min"},
      {"measurement": "mean WASO during the first third of the night improved by", "setting": "[1]; [11]", "result": 1.8, "unit": "min"},
      {"measurement": "mean WASO improved by", "setting": "[1]; [11]", "result": 10.2, "unit": "min"},
      {"measurement": "mean TST improved by", "setting": "[1]; 50 mg, Nights 22 and 29 vs baseline, nss vs placebo", "result": 48.6, "unit": "min"},
      {"measurement": "mean TST during the first third of the night improved by", "setting": "[1]; 50 mg, Nights 22 and 29 vs baseline, p<0.01 vs placebo", "result": 40.1, "unit": "min"},
      {"measurement": "mean LPS improved by", "setting": "[1]; 50 mg, Nights 22 and 29 vs baseline, p=0.016 vs placebo", "result": 45.1, "unit": "min"},
      {"measurement": "fell asleep faster than placebo group (PSG)", "setting": "[1]; 50 mg", "result": 25.9, "unit": "min"},
      {"measurement": "Latency to Persistent Sleep (LPS): Improvement compared with placebo", "setting": "[2]; 20 mg single oral dose, p<0.001", "result": 21.5, "unit": "min"},
      {"measurement": "Total Sleep Time (TST): Improvement compared with placebo", "setting": "[2]; 20 mg single oral dose, p<0.002", "result": 33.7, "unit": "min"},
      {"measurement": "Latency to Non-Awake (LNA): Improvement compared with placebo", "setting": "[2]; 20 mg single oral dose, p<0.006", "result": 11.1, "unit": "min"},
      {"measurement": "Wake After Sleep Onset (WASO): Improvement compared with placebo", "setting": "[2]; 20 mg single oral dose, p<0.02", "result": 24.2, "unit": "min"},
      {"measurement": "Latency to Non-Awake (LNA): Improvement compared with placebo", "setting": "[2]; [12]", "result": 14.3, "unit": "min"},
      {"measurement": "Latency to Persistent Sleep (LPS): Improvement compared with placebo", "setting": "[2]; [12]", "result": 26.3, "unit": "min"},
      {"measurement": "Total Sleep Time (TST): Improvement compared with placebo", "setting": "[2]; [12]", "result": 47.9, "unit": "min"},
      {"measurement": "Wake After Sleep Onset (WASO): Improvement compared with placebo", "setting": "[2]; 50 mg single oral dose, p=0.001", "result": 33.7, "unit": "min"},
      {"measurement": "Latency to Persistent Sleep (LPS): Improvement compared with placebo", "setting": "[2]; 100 mg single oral dose, p<0.001", "result": 22.8, "unit": "min"},
      {"measurement": "Latency to Non-Awake (LNA): Improvement compared with placebo", "setting": "[2]; 100 mg single oral dose, p<0.002", "result": 12.3, "unit": "min"},
      {"measurement": "Total Sleep Time (TST): Improvement compared with placebo", "setting": "[2]; 100 mg single oral dose, p<0.005", "result": 29.6, "unit": "min"},
      {"measurement": "Wake After Sleep Onset (WASO): Improvement compared with placebo", "setting": "[2]; 100 mg single oral dose, p=0.081", "result": 17.5, "unit": "min"},
      {"measurement": "tolerability", "setting": "[2]; all doses (20 mg, 50 mg, 100 mg)", "result": "well-tolerated"},
      {"measurement": "efficacy of 20 mg relative to 100 mg", "setting": "[2]; [13]", "result": "comparable or superior to 100 mg"},
      {"measurement": "efficacy of 50 mg relative to 100 mg", "setting": "[2]; [13]", "result": "more efficacious than 100 mg"},
      {"measurement": "number of nocturnal awakenings versus placebo", "setting": "[3]", "result": "did not differentiate from placebo"},
      {"measurement": "sleep latency versus placebo", "setting": "[3]", "result": "did not differentiate from placebo"},
      {"measurement": "effect on circadian rhythms", "setting": "[4]", "result": "consistently shifted circadian rhythms"},
      {"measurement": "effect of covariates on exposure levels", "setting": "[5]; age, weight, height, gender, creatinine clearance, or ALT baseline levels", "result": "not affected"},
      {"measurement": "AUC increase with dose", "setting": "[5]; oral doses 10 to 100 mg", "result": "approximately proportional to dose"},
      {"measurement": "Cmax increase with dose", "setting": "[5]; oral doses 10 to 100 mg", "result": "approximately proportional to the dose"},
      {"measurement": "dependence of aqueous solubility on pH", "setting": "[6]", "result": "practically unaffected by pH"},
      {"measurement": "solubility in organic solvents", "setting": "[6]; 95% ethanol, methanol, acetonitrile, ethyl acetate, isopropanol, polyethylene glycols (PEG-300 and PEG-400)", "result": "very soluble or freely soluble"},
      {"measurement": "native pH of a saturated solution in water", "setting": "[6]; saturated solution in water", "result": 8.5},
      {"measurement": "solubility in water", "setting": "[6]; water", "result": "only slightly soluble"}
    ]}
  ]
}
